Test results: patent publication US5021413A (priority 1988, dated 1991)
Where a name gives a salt, the structure may show the parent alone.

Tests used:
[1] = test system: p-phenylquinone-induced writhing in mice; assay: animal or person; format: in vivo, mouse (male ddY mice); settings: sc; for Analgesic effect, phenylquinone-induced writhing at 320 μg/kg (analgesic-effective animals/all animals): mouse, in vivo; for ED50: Mus musculus, read-out: Analgesic effect, phenylquinone-induced writhing, ED50
μ-receptors = biological target: T1, μ-receptors (Cavia porcellus, UniProt A0ACM8Q262); design: species or system guinea pig (male Hartley); settings: read-out: Binding to opioid receptors, μ (IC50)
T1 construct: [3H]DAGO (DAMGO) displacement
T1 sequence (A0ACM8Q262 1-400): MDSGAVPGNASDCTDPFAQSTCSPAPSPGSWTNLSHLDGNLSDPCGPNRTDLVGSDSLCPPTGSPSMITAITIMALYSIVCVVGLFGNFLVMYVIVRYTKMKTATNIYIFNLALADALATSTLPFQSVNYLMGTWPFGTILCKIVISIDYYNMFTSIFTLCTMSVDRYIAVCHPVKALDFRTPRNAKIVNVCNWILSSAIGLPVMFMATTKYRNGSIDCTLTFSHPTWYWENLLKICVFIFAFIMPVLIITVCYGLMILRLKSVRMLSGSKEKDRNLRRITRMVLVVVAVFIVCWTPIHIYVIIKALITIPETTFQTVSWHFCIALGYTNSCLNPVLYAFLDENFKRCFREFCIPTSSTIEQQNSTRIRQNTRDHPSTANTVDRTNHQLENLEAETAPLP

κ-receptors = biological target: T2, κ-receptors (Cavia porcellus, UniProt P41144); assay: biochemical; format: binding, guinea pig (male Hartley)
T2 construct: A raw preparation from brain membrane was made; tissue Japan SLC; host or cells: guinea pig whole brain without cerebellum, crude membranes
T2 sequence (P41144 whole entry): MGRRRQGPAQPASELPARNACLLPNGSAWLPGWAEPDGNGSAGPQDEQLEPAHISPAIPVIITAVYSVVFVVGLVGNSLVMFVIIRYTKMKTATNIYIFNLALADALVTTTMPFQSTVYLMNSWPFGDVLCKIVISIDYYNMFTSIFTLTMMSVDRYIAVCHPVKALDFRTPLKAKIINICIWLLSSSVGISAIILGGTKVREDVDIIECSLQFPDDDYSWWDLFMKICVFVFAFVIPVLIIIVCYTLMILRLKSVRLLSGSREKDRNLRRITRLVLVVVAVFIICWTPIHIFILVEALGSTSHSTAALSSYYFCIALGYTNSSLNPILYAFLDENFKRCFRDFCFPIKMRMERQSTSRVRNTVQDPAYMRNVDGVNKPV

Row | SMILES | Analgesic effect, phenylquinone-induced writhing at 320 μg/kg (analgesic-effective animals/all animals) [1] | IC50 (μ-receptors) [nM] | ED50 [1] [µg/kg] | IC50 (κ-receptors) [nM]
1 | CN1CC[C@]23c4c5ccc(O)c4O[C@H]2[C@@H](O)C=C[C@H]3[C@H]1C5.Cl [Morphine HCl, reference compound] | 2/5 | – | – | –
2 | O=C1CC(C(=O)N2CCSCC2CN2CCCC2)c2cc(Cl)c(Cl)cc21 (stereo not shown) [Example 36, 4-(5,6-dichloro-3-oxoindan-1-carbonyl)-3-(pyrrolidin-1-ylmethyl)thiomorpholine hydrochloride] | – | 1140 | 3.4 | 2.4
3 | O=C(Cc1ccc(Cl)c(Cl)c1)N1CCSCC1CN1CCCC1 (stereo not shown) [Example 17, 4-(3,4-dichlorophenylacetyl)-3-(pyrrolidin-1-ylmethyl)thiomorpholine hydrochloride] | 5/5 | – | – | 1.1
4 | O=C1C[C@@H](C(=O)N2CCCC[C@H]2CN2CCCC2)c2cc(Cl)c(Cl)cc21 (relative stereo) [Example 4-D2, 1-[(1R*)-5,6-dichloro-3-oxoindan-1-carbonyl](2S*)-2-(pyrrolidin-1-ylmethyl)piperidine] | – | – | 270 | 366
5 | O=C1C[C@H](C(=O)N2CCCC[C@H]2CN2CCCC2)c2cc(Cl)c(Cl)cc21 (relative stereo) [Example 4-D1, 1-[(1S*)-5,6-dichloro-3-oxoindan-1-carbonyl)-(2S*)-2-pyrrolidin-1-ylmethyl)piperidine] | – | 531 | 3.43 | 1.4
6 | O=C1CC(C(=O)N2CCCCC2CN2CCCC2)c2cc(Cl)c(Cl)cc21 (stereo not shown) [Example 1, 1-(5,6-dichloro-3-oxoindan-1-carbonyl)-2-(pyrrolidin-1-yl-methyl)piperidinehydrochloride] | – | 1070 | 6.2 | 1.75
7 | O=C([C@H]1CCc2cc(Cl)c(Cl)cc21)N1CCSC[C@@H]1CN1CCCC1 (relative stereo) [Example 41-D1, 4-[(1S*)-5,6-dichloroindan-1-carbonyl]-(3S*)-3-(pyrrolidin-1-ylmethyl)thiomorpholine] | – | 698 | 1.3 | 0.67
8 | O=C1C[C@H](C(=O)N2CCCC[C@H]2CN2CCCC2)c2cc(Cl)c(Cl)cc21 [Example 2-E1, 1-[(1S)-5,6-dichloro-3-oxoindan-1-carbonyl]-(2S)-2-(pyrrolidin-1-ylmethyl)piperidine] | – | 232 | 1.73 | 0.9
9 | O=C1C[C@@H](C(=O)N2CCCC[C@H]2CN2CCCC2)c2cc(Cl)c(Cl)cc21 [Example 2-E2, 1-[(1R)-5,6-dichloro-3-oxoindan-1-carbonyl]-(2S)-2-(pyrrolidin-1-ylmethyl)piperidine] | – | – | 320 | 258
